Laboratory results from ChEMBL document CHEMBL1201862, “PubChem BioAssay data set” (2004).
“And” between values parts separate entries of the source, which are not always exact repeats. Identical values can stand only once.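 Step 1: Grow cells in 96-well plates. Step 2: Expose to compound for 48 hours at 5 concentrations. Step 3: Interpolate endpoints linearly; if unreached, use highest concentration. The concentration for 50% growth inhibition is given as GI50.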 The source made the active and inactive calls. Cut-off read from the data, not from the text of the source: active = GI50 up to about 1.1 µM and inactive = higher.

Experiments:
Assay in all cases: NCI tumour cell line growth inhibition, 48 h
NCI-H226 = system: NCI-H226
RPMI-8226 = system: RPMI-8226
NCI-H522 = system: NCI-H522
COLO 205 = system: COLO 205
HCC 2998 = system: HCC 2998
SF-268 = system: SF-268
A498 = system: A498
SK-MEL-5 = system: SK-MEL-5
NCI-H23 = system: NCI-H23
UACC-257 = system: UACC-257
NCI/ADR-RES = system: NCI/ADR-RES
MCF7 = system: MCF7
K562 = system: K562
SN12C = system: SN12C
SF-295 = system: SF-295
RXF 393 = system: RXF 393
UO-31 = system: UO-31
Hs-578T = system: Hs-578T
DU-145 = system: DU-145
OVCAR-5 = system: OVCAR-5
HCT-15 = system: HCT-15
IGROV-1 = system: IGROV-1
OVCAR-8 = system: OVCAR-8
SK-MEL-2 = system: SK-MEL-2
M14 = system: M14
LOX IMVI = system: LOX IMVI
HT-29 = system: HT-29
Malme-3M = system: Malme-3M
HCT-116 = system: HCT-116
TK-10 = system: TK-10
MDA-N = system: MDA-N
EKVX = system: EKVX
SNB-75 = system: SNB-75
KM12 = system: KM12
MDA-MB-231 = system: MDA-MB-231
SF-539 = system: SF-539
HOP-92 = system: HOP-92
UACC-62 = system: UACC-62
T47D = system: T47D

What does the source list for `COC(=O)C1C(O)CCC2CN3CCc4c([nH]c5ccccc45)C3CC21` (centres undefined)?
GI50 (NCI-H226): > 100 µM (inactive); GI50 (RPMI-8226): > 100 µM (inactive); GI50 (NCI-H522): > 100 µM (inactive); GI50 (COLO 205): > 100 µM (inactive) and > 68.7 µM (inactive); GI50 (HCC 2998): > 100 µM (inactive); GI50 (SF-268): > 78 µM (inactive); GI50 (A498): > 100 µM (inactive); GI50 (SK-MEL-5): > 100 µM (inactive); GI50 (NCI-H23): > 100 µM (inactive); GI50 (UACC-257): > 87.1 µM (inactive); GI50 (NCI/ADR-RES): > 100 µM (inactive); GI50 (MCF7): > 100 µM (inactive) and > 72.9 µM (inactive); GI50 (K562): > 100 µM (inactive); GI50 (SN12C): > 100 µM (inactive); GI50 (SF-295): > 100 µM (inactive); GI50 (RXF 393): > 100 µM (inactive); GI50 (UO-31): 54.2 µM (inactive); GI50 (Hs-578T): > 100 µM (inactive); GI50 (DU-145): > 100 µM (inactive) and > 87.7 µM (inactive); GI50 (OVCAR-5): > 66.2 µM (inactive); GI50 (HCT-15): > 67.3 µM; GI50 (IGROV-1): 67.1 µM (inactive); GI50 (OVCAR-8): > 100 µM (inactive); GI50 (SK-MEL-2): > 100 µM (inactive) and > 80.5 µM (inactive); GI50 (M14): > 100 µM (inactive); GI50 (LOX IMVI): > 100 µM (inactive); GI50 (HT-29): > 100 µM (inactive) and 72.8 µM (inactive); GI50 (Malme-3M): > 68.1 µM (inactive); GI50 (HCT-116): > 100 µM (inactive); GI50 (TK-10): > 100 µM (inactive); GI50 (MDA-N): > 100 µM (inactive) and > 92 µM (inactive); GI50 (EKVX): > 91 µM (inactive); GI50 (SNB-75): 56 µM (inactive); GI50 (KM12): > 95.1 µM (inactive); GI50 (MDA-MB-231): > 100 µM (inactive); GI50 (SF-539): > 100 µM (inactive); GI50 (HOP-92): > 51.4 µM (inactive); GI50 (UACC-62): > 100 µM (inactive); GI50 (T47D): > 71.4 µM (inactive)
